Experimental data from ChEMBL document CHEMBL1201862, “PubChem BioAssay data set” (2004).
Calls of active or inactive are those of the source.

Legend:
[1] = biological target: Dual specificity protein phosphatase 3 (Homo sapiens, UniProt P51452); assay: VHR1 phosphatase inhibitors, primary screen, biochemical, absorbance, uHTS (AID 1654)
[2] = biological target: T1, Tyrosine-protein phosphatase non-receptor type 22 (Homo sapiens, UniProt Q9Y2R2); assay type: functional;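 also: confirmatory dose-response retest of primary uHTS hits for inhibition of LYP phosphatase, measured by a fluorescence intensity read-out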
T1 sequence (Q9Y2R2 whole entry): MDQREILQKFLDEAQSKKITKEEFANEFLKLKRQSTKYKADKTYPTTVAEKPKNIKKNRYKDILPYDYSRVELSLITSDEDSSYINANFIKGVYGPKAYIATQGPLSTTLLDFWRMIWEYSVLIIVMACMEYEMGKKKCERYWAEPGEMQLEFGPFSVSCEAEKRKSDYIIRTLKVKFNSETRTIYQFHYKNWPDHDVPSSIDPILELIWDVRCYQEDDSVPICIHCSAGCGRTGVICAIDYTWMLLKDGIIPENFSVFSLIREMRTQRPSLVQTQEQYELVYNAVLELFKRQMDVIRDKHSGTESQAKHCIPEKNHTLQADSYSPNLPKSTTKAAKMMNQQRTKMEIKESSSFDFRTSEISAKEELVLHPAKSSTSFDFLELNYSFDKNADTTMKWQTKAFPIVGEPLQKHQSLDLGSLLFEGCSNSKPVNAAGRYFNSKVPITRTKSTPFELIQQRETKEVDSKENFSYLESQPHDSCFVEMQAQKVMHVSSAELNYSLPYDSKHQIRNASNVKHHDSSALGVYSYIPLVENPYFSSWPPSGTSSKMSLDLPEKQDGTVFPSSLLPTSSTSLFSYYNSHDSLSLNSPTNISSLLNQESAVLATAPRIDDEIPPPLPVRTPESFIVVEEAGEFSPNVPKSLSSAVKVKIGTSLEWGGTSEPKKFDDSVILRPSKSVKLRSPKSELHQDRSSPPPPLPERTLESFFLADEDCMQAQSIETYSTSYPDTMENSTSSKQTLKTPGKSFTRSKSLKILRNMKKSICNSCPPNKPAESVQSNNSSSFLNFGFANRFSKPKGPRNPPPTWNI

[3] = biological target: T2, Dual specificity protein phosphatase 6 (Rattus norvegicus, UniProt Q64346); assay type: functional;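 also: confirmatory in vitro dose-response testing of MKP-3 inhibition; recombinant His-tagged MKP-3 made in E. coli BL21 with OMFP substrate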
T2 sequence (Q64346 whole entry): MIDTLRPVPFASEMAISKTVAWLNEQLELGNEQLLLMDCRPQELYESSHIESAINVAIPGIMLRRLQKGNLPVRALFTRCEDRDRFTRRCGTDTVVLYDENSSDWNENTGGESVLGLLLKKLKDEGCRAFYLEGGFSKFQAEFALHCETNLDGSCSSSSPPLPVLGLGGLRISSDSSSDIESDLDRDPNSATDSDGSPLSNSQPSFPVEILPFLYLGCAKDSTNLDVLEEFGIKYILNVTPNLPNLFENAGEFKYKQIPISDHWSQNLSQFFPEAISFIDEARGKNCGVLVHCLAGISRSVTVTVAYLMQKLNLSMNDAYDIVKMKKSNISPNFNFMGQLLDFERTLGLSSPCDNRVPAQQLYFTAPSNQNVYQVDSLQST

[4] = biological target: Small ubiquitin-related modifier 1 (Homo sapiens, UniProt P63165); assay: SUMO1 protein-protein binding blockers, potency – biochemical, FRET, dose response (AID 624383); assay type: functional; conditions: read-out: IC50_Mean
[5] = biological target: T1, Tyrosine-protein phosphatase non-receptor type 22; assay: lymphoid phosphatase LYP inhibitors – biochemical, selectivity assay for STEP inhibitor project, dose response (AID 624241); assay type: functional
[6] = biological target: Voltage-dependent T-type calcium channel subunit alpha-1H (Homo sapiens, UniProt O95180); assay type: functional;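 also: channel activity triggered by adding a high calcium stimulation buffer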
Insulin-degrading enzyme = biological target: T3, Insulin-degrading enzyme (Homo sapiens, UniProt P14735); assay: recombinant IDE activation, cell-free – biochemical, fluorescence polarization, counter-screen for IDE activator project, dose response (AID 588681)
T3 sequence (P14735 whole entry): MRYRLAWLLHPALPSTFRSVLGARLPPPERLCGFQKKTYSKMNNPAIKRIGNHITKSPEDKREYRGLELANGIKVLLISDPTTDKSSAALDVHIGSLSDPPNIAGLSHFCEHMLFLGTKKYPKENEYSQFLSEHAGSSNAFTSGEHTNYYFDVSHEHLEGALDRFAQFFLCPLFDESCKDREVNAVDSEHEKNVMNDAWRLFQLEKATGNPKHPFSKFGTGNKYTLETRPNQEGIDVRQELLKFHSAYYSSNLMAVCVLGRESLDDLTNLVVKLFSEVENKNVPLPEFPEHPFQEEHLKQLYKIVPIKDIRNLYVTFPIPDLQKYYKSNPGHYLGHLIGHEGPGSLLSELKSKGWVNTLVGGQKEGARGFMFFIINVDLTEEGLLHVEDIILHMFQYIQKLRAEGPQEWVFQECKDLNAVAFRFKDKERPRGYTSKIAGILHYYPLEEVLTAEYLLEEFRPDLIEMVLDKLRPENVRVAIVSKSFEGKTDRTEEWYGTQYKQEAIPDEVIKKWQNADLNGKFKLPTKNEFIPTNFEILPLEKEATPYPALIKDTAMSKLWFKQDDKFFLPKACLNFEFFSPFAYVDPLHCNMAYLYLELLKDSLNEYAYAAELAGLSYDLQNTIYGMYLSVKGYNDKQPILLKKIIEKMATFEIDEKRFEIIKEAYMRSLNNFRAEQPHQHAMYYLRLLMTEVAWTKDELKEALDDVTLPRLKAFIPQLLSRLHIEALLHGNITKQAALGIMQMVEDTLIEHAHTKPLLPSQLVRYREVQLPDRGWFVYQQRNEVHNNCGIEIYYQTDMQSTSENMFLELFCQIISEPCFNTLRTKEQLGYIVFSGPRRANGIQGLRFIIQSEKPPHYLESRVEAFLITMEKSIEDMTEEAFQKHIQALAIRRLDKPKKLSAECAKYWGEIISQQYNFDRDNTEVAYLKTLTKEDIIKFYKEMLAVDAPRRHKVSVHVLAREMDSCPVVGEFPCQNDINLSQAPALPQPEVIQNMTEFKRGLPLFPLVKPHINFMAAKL

Chain of Small ubiquitin-related modifier 1 (P63165 whole entry): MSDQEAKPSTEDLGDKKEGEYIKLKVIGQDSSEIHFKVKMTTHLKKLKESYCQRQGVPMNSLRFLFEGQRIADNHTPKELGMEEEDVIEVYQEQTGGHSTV
Chain of Voltage-dependent T-type calcium channel subunit alpha-1H (O95180 whole entry): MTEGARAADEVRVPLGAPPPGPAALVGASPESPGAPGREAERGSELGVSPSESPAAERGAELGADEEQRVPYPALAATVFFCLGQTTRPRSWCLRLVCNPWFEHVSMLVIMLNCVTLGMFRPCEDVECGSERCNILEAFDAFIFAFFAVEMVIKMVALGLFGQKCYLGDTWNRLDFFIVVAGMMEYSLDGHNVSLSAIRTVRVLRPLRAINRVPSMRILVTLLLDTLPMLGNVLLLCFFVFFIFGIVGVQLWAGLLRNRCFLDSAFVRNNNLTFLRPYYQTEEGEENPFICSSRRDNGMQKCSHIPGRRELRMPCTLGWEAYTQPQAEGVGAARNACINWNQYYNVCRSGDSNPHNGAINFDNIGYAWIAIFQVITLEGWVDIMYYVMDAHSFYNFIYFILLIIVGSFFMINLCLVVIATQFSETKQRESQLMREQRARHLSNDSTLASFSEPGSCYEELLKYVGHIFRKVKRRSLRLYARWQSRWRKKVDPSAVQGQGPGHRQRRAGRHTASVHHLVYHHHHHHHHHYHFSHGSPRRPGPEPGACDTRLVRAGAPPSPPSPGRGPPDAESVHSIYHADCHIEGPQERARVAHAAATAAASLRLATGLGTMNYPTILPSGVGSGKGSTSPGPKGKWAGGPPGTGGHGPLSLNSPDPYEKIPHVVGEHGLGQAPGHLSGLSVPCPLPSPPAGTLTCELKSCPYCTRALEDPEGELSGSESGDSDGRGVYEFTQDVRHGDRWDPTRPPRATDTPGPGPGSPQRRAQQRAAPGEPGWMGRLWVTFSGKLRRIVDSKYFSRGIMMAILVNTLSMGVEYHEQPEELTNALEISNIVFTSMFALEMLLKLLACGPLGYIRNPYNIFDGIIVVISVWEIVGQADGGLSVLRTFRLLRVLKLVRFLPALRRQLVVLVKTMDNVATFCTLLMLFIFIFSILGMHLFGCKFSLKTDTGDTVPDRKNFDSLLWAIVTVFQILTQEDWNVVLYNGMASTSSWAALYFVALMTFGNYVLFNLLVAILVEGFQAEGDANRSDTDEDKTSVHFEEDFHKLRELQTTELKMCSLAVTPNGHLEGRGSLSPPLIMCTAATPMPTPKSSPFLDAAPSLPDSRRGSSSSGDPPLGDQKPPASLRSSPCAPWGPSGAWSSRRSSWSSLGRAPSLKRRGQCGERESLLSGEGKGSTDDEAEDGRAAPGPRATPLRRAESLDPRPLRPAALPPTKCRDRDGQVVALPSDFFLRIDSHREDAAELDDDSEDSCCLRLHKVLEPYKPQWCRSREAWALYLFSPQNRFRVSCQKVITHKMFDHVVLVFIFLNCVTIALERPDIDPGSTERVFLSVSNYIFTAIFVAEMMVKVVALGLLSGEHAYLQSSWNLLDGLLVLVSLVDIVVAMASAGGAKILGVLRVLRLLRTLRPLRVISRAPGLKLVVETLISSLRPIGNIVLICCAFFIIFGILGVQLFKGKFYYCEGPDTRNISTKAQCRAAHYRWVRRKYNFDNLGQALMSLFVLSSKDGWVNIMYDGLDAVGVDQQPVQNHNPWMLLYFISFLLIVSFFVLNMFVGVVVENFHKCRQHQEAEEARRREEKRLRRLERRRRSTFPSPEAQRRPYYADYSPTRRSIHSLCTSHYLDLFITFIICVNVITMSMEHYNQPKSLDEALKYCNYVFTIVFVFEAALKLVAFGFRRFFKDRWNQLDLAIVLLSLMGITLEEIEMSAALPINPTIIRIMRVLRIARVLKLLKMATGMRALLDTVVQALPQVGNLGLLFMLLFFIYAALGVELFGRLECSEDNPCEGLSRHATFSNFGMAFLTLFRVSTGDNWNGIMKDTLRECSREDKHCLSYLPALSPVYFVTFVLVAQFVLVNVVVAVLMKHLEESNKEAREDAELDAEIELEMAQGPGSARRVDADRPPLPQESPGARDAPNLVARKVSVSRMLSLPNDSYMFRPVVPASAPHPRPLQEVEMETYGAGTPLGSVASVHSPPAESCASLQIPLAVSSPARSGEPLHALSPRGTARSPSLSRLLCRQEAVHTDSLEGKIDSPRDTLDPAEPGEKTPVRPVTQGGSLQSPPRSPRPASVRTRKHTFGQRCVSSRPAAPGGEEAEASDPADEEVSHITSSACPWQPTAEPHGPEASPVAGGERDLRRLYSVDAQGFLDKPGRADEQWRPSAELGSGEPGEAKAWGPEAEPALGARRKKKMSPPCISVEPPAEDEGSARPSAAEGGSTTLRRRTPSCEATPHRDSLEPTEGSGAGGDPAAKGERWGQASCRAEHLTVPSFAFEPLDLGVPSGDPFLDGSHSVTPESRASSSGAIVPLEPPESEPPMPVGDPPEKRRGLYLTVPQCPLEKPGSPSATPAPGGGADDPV
Chain of Dual specificity protein phosphatase 3 (P51452 whole entry): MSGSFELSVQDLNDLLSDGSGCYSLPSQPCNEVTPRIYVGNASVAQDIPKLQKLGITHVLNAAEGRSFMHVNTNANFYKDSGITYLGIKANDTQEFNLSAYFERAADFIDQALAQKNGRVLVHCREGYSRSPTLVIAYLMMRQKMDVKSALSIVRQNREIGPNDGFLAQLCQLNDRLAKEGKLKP

CCOC(=O)c1sc2nc3c(SCC(=O)O)cc(C(=O)c4ccccc4O)cn3c(=O)c2c1C
IC50 [1]: 4.64 µM (active) | IC50 [2]: < 1.24 µM (active) | IC50 [3]: 57.3 µM (active) | IC50 [4]: 6.2 µM (active) | IC50 [5]: 1.16 µM (active)

C=CCn1c(NC(=O)c2ccccc2Cl)c(C#N)c2nc3ccccc3nc21
EC50 [6]: 4.23 µM (active)

O=c1oc2c(O)cccc2cc1-c1nc2ccccc2[nH]1
EC50 (Insulin-degrading enzyme): > 54.7 µM (inactive)
